Type in all cases: biochemical
One assay has as its target T1, hSULT1A2 (Homo sapiens, UniProt P50226).
T1 construct: 6-histidine tag (N); TEV site (N); made in house; host or cells: Escherichia coli BL21 (DE3), pET29a(+)
Briefly: Fluorescence-based microplate inhibition assay, hSULT1A2-catalyzed HN-241 4-O-sulfation. Conditions: for remaining activity at 10 µM: 0.25 h, read-out: Residue activity (%) hSULT1A2.

Another assay addresses T2, hSULT1A3 (Homo sapiens, UniProt P0DMM9).
T2 construct: 6-histidine tag (N); TEV site (N); made in house; host or cells: Escherichia coli BL21 (DE3), pET29a(+)
Briefly: Fluorescence-based microplate inhibition assay, hSULT1A3-catalyzed HN-241 4-O-sulfation. Conditions: for activity at 10 µM: read-out: Residue activity (%) hSULT1A3.

The target of another assay is T3, hSULT1A1 (Homo sapiens, UniProt P50225).
T3 construct: 6-histidine tag (N); TEV site (N); made in house; host or cells: Escherichia coli BL21 (DE3), pET29a(+)
T3 sequence (P50225 whole entry): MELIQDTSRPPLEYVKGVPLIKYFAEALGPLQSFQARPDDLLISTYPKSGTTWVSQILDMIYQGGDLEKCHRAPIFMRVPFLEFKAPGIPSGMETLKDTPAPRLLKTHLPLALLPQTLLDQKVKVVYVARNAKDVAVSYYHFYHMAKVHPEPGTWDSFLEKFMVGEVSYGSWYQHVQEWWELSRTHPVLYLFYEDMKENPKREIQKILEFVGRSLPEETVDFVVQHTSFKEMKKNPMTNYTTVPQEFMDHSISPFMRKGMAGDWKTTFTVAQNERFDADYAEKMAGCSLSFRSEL
Briefly: Fluorescence-based microplate inhibition assay, hSULT1A1-catalyzed HN-241 4-O-sulfation.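 For all read-outs here: reaction started with 200 µM PAPS at 37 °C, fluorescence read continuously (Ex 350 nm, Em 450 nm), activity expressed relative to DMSO-only control without inhibitor.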 Conditions: for activity at 1 µM: read-out: Residue activity (%) hSULT1A1.

[1] abbreviates: test compound 10 μM, HN-241 5 μM, 15 min.
Where [2] appears, read: test compound 10 μM, HN-241 10 μM, 15 min.
Where [3] appears, read: test compound 1 μM, HN-241 1 μM, 15 min.
[4] abbreviates: hSULT1A2-catalyzed HN-241 4-O-sulfation.

Each structure is given as a SMILES string. “And” between values parts separate entries of the source, which are not always exact repeats. Equal entries are not always repeated. Where two headings read alike, the source gives them in different places.

T2 sequence (P0DMM9 whole entry): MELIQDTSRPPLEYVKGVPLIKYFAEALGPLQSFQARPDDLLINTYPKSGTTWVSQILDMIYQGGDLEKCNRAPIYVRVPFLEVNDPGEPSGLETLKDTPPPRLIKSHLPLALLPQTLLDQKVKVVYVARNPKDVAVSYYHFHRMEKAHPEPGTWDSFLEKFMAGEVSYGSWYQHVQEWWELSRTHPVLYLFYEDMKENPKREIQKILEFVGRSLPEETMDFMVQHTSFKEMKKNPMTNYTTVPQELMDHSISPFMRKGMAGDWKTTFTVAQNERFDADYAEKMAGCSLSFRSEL
T1 sequence (P50226 whole entry): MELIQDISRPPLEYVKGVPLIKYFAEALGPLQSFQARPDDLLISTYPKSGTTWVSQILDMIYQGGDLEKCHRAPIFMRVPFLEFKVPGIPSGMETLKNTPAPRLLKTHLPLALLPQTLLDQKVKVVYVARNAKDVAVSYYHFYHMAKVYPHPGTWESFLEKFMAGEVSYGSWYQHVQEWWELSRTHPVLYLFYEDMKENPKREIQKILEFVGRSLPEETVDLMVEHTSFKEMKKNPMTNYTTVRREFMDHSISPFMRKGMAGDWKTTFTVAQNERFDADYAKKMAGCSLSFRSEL

Take `O=C1C=CC(=O)c2cc3ccccc3cc21` [1,4-Anthracenedione]: the “Residue activity (%) hSULT1A2” value at hSULT1A2 (setting [1]) amounted to 1.06%. In addition, the “Residue activity (%) hSULT1A3” value at hSULT1A3 (setting [2]) came to 94.23%. Also, the “Residue activity (%) hSULT1A1” value at hSULT1A1 (setting [3]) came to 29.15%.
The matching figures for `COc1cc2c(c(O)c1OC)C(=O)c1c(cc(C)c(O)c1OC)C2=O` [1,7-Dihydroxy-2,3,8-trimethoxy-6-methylanthracene-9,10-dione]: 0.20%, 61.63% and 0.00%.
For the compound `C[C@]12CC[C@H](O)C[C@@]1(O)CC[C@@H]1[C@@H]2CC[C@]2(C)[C@@H](c3ccc(=O)oc3)CC[C@]12O` [3β,5,14-Trihydroxy-5β-bufa-20,22-dienolide], the “Residue activity (%) hSULT1A2” value at hSULT1A2 (setting [1]) was 109.91%. The “Residue activity (%) hSULT1A3” value at hSULT1A3 (setting [2]) is on record as 114.49%. In addition, on hSULT1A1 (setting [3]), the “Residue activity (%) hSULT1A1” value is 121.35%.
Regarding `COc1ccc(/C=C/C(=O)c2ccccc2)cc1` [4-Methoxychalcone], the “Residue activity (%) hSULT1A2” value at hSULT1A2 (setting [1]) is on record as 75.95%. Further, the “Residue activity (%) hSULT1A1” value at hSULT1A1 (setting [3]) is given as 78.44%.
Take `O=c1cc(-c2ccccc2)oc2ccc(O)c(O)c12` [5,6-Dihydroxy-2-phenylchromen-4-one]: the “Residue activity (%) hSULT1A2” value on hSULT1A2 (setting [1]) is 8.07%. Also, the “Residue activity (%) hSULT1A3” value on hSULT1A3 (setting [2]) came out at 68.42%. Besides, the “Residue activity (%) hSULT1A1” value on hSULT1A1 (setting [3]) was determined as 18.14%.
Take `COc1c2occc2cc2ccc(=O)oc12` [8-Methoxypsoralen]: the remaining activity at 10 µM at hSULT1A2 (setting [1]) is 110%. For the same compound, the activity at 10 µM on hSULT1A3 (setting [2]) was 119%. The activity at 1 µM at hSULT1A1 (setting [3]) is 107%.
For the compound `CC(C)=CCC[C@@](C)(O)[C@H]1CC[C@]2(C)[C@@H]1[C@H](O)C[C@@H]1[C@@]3(C)CC[C@H](O)C(C)(C)[C@@H]3[C@@H](O[C@@H]3O[C@H](CO)[C@@H](O)[C@H](O)[C@H]3O[C@@H]3O[C@@H](C)[C@H](O)[C@@H](O)[C@H]3O)C[C@]12C` [20(R)-Ginsenoside Rg2], the “Residue activity (%) hSULT1A2” value on hSULT1A2 (setting [1]) amounted to 104.32%. For the same compound, at hSULT1A3 (setting [2]), the “Residue activity (%) hSULT1A3” value is 122.28%. The “Residue activity (%) hSULT1A1” value at hSULT1A1 (setting [3]) is reported as 104.07%.
The matching figures for `CC(C)=CCC[C@@](C)(O)[C@H]1CC[C@]2(C)[C@@H]1[C@H](O)C[C@@H]1[C@@]3(C)CC[C@H](O[C@@H]4O[C@H](CO)[C@@H](O)[C@H](O)[C@H]4O)C(C)(C)[C@@H]3CC[C@]12C` [20(R)-Ginsenoside Rh2]: 114.69%, 116.23% and 98.01%.
In the case of `CC(C)=CCC[C@@](C)(O)[C@H]1CC[C@]2(C)[C@@H]1[C@H](O)C[C@@H]1[C@@]3(C)CC[C@H](O)C(C)(C)[C@@H]3[C@@H](O[C@@H]3O[C@H](CO)[C@@H](O)[C@H](O)[C@H]3O[C@@H]3OC[C@@H](O)[C@H](O)[C@H]3O)C[C@]12C` [20(R)-Notoginsenoside R2], the “Residue activity (%) hSULT1A2” value at hSULT1A2 (setting [1]) was 109.60%. The “Residue activity (%) hSULT1A3” value on hSULT1A3 (setting [2]) was 100.25%. On hSULT1A1 (setting [3]), the “Residue activity (%) hSULT1A1” value was found to be 110.54%.
The matching figures for `CC(C)=CCC[C@](C)(O)[C@H]1CC[C@]2(C)[C@@H]1[C@H](O)C[C@@H]1[C@@]3(C)CC[C@H](O[C@@H]4O[C@H](CO)[C@@H](O)[C@H](O)[C@H]4O)C(C)(C)[C@@H]3CC[C@]12C` [20(S)-Ginsenoside Rh2]: 110.74%, 105.44% and 85.94%.
Turning to `CC(C)=CCC[C@@](C)(O)[C@H]1CC[C@]2(C)[C@@H]1[C@H](O)C[C@@H]1[C@@]3(C)CC[C@H](O)C(C)(C)[C@@H]3CC[C@]12C` [(20R)-Protopanaxdiol], the “Residue activity (%) hSULT1A2” value on hSULT1A2 (setting [1]) is 97.81% and 101.25%. Besides, the “Residue activity (%) hSULT1A3” value at hSULT1A3 (setting [2]) is 110.20% and 105.48%. The “Residue activity (%) hSULT1A1” value at hSULT1A1 (setting [3]) is 99.25% and 99.62%.
Take `CC(C)=CCC[C@](C)(O)[C@H]1CC[C@]2(C)[C@@H]1[C@H](O)C[C@@H]1[C@@]3(C)CC[C@H](O)C(C)(C)[C@@H]3CC[C@]12C` [(20S)-Protopanaxdiol]: at hSULT1A2 (setting [1]), the “Residue activity (%) hSULT1A2” value is recorded as 95.73%. The “Residue activity (%) hSULT1A3” value on hSULT1A3 (setting [2]) was 81.62%. Besides, the “Residue activity (%) hSULT1A1” value at hSULT1A1 (setting [3]) is 99.75%.
Take `Oc1cc(O)c2c(c1)O[C@@H](c1ccc(O)c(O)c1)[C@H](O)C2` [(-)-Catechin]: the remaining activity at 10 µM at hSULT1A2 (setting [1]) is 101%. In addition, the activity at 10 µM on hSULT1A3 (setting [2]) stood at 46.8%. The activity at 1 µM on hSULT1A1 (setting [3]) turned out to be 41.4%.
In the same order, the values of `COc1ccc(-c2cc(=O)c3c(O)cc(O)cc3o2)cc1` [Acacetin] are 0.47%, 58.1% and 0.38%.
`O=C(/C=C/C=C/c1ccccc1)CCc1ccccc1` [Alnustone]: at hSULT1A2 (setting [1]), the “Residue activity (%) hSULT1A2” value was 80.60%. Moreover, the “Residue activity (%) hSULT1A3” value at hSULT1A3 (setting [2]) stood at 111.42%. In addition, the “Residue activity (%) hSULT1A1” value at hSULT1A1 (setting [3]) came out at 74.39%.
In the case of `O=C1c2cccc(O)c2C(=O)c2c(O)cc(CO)cc21` [Aloeemodin], at hSULT1A2 (setting [1]), the remaining activity at 10 µM came to 0%. The same compound displayed an IC50 against hSULT1A2 (setting [4]) of 118 ± 7.2 nM. Moreover, on hSULT1A3 (setting [2]), the activity at 10 µM came out at 61.3%. At hSULT1A1 (setting [3]), the activity at 1 µM is 0.21%.
In the case of `COc1cc(O)cc2c1C(=O)C[C@@H](c1ccccc1)O2` [Alpinetin], the remaining activity at 10 µM on hSULT1A2 (setting [1]) is 49.5%. Also, on hSULT1A3 (setting [2]), the activity at 10 µM was 115%. Besides, at hSULT1A1 (setting [3]), the activity at 1 µM was 69.8%.
With `O=C1CCC[C@@H]2[C@H]3CCC[N@+]4([O-])CCC[C@@H](CN12)[C@@H]34` [Ammothamnine], the “Residue activity (%) hSULT1A2” value on hSULT1A2 (setting [1]) is given as 96.56%. Besides, on hSULT1A3 (setting [2]), the “Residue activity (%) hSULT1A3” value was 100.34%. Besides, on hSULT1A1 (setting [3]), the “Residue activity (%) hSULT1A1” value came out at 99.18%.
As to `COc1c(O)cc2c(c1O)C(=O)c1c(cc(C)c(O)c1OC)C2=O` [Aurantio-obtusin], the remaining activity at 10 µM on hSULT1A2 (setting [1]) was 0%. The midpoint of inhibition at hSULT1A2 (setting [4]), the IC50, lay at 492 ± 15.2 nM. Further, the activity at 10 µM on hSULT1A3 (setting [2]) came out at 45.2%. On hSULT1A1 (setting [3]), the activity at 1 µM came out at 0.45%.
As to `O=c1cc(-c2ccccc2)oc2cc(O)c(O)c(O)c12` [Baicalein], the 50% inhibitory concentration (IC50) is 6320 ± 195 nM against hSULT1A3 (hSULT1A3-catalyzed HN-241 4-O-sulfation) and 45.2 ± 3.91 nM at hSULT1A1 (hSULT1A1-catalyzed HN-241 4-O-sulfation).
Take `COc1ccc(-c2cc(=O)c3c(O)cc(O)cc3o2)cc1-c1c(O)cc(O)c2c(=O)cc(-c3ccc(O)cc3)oc12` [Bilobetin]: the remaining activity at 10 µM at hSULT1A2 (setting [1]) was determined as 0%. In addition, on hSULT1A2 (setting [4]), the concentration for half-maximal inhibition (IC50) is 55.5 ± 1.3 nM. Further, the Inhibition manner result at hSULT1A2 (inhibition kinetic assay, hSULT1A2-catalyzed HN-241 4-O-sulfation) is “mixed inhibition”. The activity at 10 µM on hSULT1A3 (setting [2]) was determined as 42.3%. For the same compound, the activity at 1 µM on hSULT1A1 (setting [3]) was determined as 24%.
For the compound `C[C@]12CC[C@H](O)C[C@H]1CC[C@@H]1[C@@H]2CC[C@]2(C)[C@@H](c3ccc(=O)oc3)CC[C@]12O` [Bufalin], the remaining activity at 10 µM on hSULT1A2 amounted to 106%. Moreover, the activity at 10 µM at hSULT1A3 was 124%. For the same compound, on hSULT1A1, the activity at 1 µM was determined as 103%.
`COC[C@]12CN(C)[C@@H]3[C@@H]4[C@H](OC)[C@H]1[C@@]3([C@@H](OC)C[C@H]2O)[C@@H]1C[C@@]2(O)[C@H](OC(=O)c3ccccc3)[C@@H]1[C@]4(OC(C)=O)[C@@H](O)[C@@H]2OC` [Mesaconitine]: the “Residue activity (%) hSULT1A2” value at hSULT1A2 (setting [1]) is 114.51%. For the same compound, the “Residue activity (%) hSULT1A3” value on hSULT1A3 (setting [2]) was determined as 110.31%.
For `CC(C)=CCC[C@](C)(O)[C@H]1CC[C@]2(C)[C@@H]1[C@H](O)C[C@@H]1[C@@]3(C)CC[C@H](O)C(C)(C)[C@@H]3[C@@H](O[C@@H]3O[C@H](CO)[C@@H](O)[C@H](O)[C@H]3O[C@@H]3OC[C@@H](O)[C@H](O)[C@H]3O)C[C@]12C` [Notoginsenoside R2], the “Residue activity (%) hSULT1A2” value at hSULT1A2 (setting [1]) is recorded as 108.58%. Also, the “Residue activity (%) hSULT1A1” value on hSULT1A1 (setting [3]) is listed as 105.59%.

Usually IC50 stands for the concentration that gives 50% inhibition.

These data come from article PMC11202169, “A Novel Fluorescence-Based Microplate Assay for High-Throughput Screening of hSULT1As Inhibitors” (Biosensors, 2024).
